Source: ChEMBL document CHEMBL1134129, “Novel and potent tacrine-related hetero- and homobivalent ligands for acetylcholinesterase and butyrylcholinesterase” (Bioorg Med Chem Lett, 2001)

Assays:
Butyrylcholinesterase = Butyrylcholinesterase (Equus caballus, UniProt Q9N1N9)
Description: Inhibition of equine (Eq) Butyrylcholinesterase

Acetylcholinesterase = target: T1, Acetylcholinesterase (Bos taurus, UniProt P23795)
T1 sequence (P23795 whole entry): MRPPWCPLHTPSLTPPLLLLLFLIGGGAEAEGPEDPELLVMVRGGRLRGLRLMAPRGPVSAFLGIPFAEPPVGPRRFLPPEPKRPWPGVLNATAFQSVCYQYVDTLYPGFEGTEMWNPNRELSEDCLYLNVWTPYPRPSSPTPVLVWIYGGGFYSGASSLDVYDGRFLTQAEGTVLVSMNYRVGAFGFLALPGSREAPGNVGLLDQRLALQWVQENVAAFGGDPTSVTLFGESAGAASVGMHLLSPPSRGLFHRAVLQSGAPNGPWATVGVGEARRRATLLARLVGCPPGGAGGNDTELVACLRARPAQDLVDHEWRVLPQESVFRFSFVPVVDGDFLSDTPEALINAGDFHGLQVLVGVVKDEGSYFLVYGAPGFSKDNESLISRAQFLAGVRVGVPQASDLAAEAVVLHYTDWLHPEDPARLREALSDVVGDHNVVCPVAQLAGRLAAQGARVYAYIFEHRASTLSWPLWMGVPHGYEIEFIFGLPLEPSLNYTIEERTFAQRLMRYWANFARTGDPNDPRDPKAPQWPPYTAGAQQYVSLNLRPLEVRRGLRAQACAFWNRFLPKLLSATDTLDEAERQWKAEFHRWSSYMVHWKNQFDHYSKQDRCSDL
Description: Inhibition of acetylcholinesterase (AChE) of fetal bovine serum (FBS)

Butyrylcholinesterase, sequence (Q9N1N9 whole entry): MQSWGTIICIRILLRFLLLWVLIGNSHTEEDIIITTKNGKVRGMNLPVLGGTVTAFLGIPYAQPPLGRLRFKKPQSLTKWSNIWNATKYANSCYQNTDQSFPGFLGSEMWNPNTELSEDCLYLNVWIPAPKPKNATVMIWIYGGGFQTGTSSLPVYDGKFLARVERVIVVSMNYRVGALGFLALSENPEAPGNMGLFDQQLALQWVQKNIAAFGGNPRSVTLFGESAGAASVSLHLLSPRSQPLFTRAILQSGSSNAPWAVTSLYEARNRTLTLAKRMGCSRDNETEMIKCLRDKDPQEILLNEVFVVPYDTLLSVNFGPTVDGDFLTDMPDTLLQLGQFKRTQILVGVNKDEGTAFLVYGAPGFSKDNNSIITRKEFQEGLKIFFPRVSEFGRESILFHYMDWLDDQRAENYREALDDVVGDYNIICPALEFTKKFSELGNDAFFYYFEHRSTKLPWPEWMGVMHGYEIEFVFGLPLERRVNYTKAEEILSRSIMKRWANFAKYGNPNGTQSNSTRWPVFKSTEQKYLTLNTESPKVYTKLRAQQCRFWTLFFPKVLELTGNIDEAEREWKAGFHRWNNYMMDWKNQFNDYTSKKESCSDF

Clc1cc(Cl)c2c(NCCCCCCCSc3c4c(nc5ccccc35)CCCC4)c3c(nc2c1)CCCC3
Ki (Butyrylcholinesterase): 250 nM

c1ccc2c(NCCCCCCCNc3c4c(nc5ccccc35)CCCC4)c3c(nc2c1)CCCC3
Ki (Butyrylcholinesterase): 2 nM

Clc1cc(Cl)c2nc3c(c(SCCCCCCCNc4c5c(nc6ccccc46)CCCC5)c2c1)CCCC3
Ki (Butyrylcholinesterase): 80 nM | Ki (Acetylcholinesterase): 290 nM

c1ccc2c(NCCCCSc3c4c(nc5ccccc35)CCCC4)c3c(nc2c1)CCCC3
Ki (Butyrylcholinesterase): 40 nM | Ki (Acetylcholinesterase): 650 nM

c1ccc2c(SCCCCCCCSc3c4c(nc5ccccc35)CCCC4)c3c(nc2c1)CCCC3
Ki (Butyrylcholinesterase): 380 nM | Ki (Acetylcholinesterase): > 10000 nM

Nc1c2c(nc3cc(Cl)cc(Cl)c13)CCCC2
Ki (Butyrylcholinesterase): 50 nM | Ki (Acetylcholinesterase): 1 nM

c1ccc2c(NCCCCCCCSc3c4c(nc5ccccc35)CCCC4)c3c(nc2c1)CCCC3
Ki (Butyrylcholinesterase): 35 nM | Ki (Acetylcholinesterase): 340 nM

Clc1cc(Cl)c2c(SCCCCCCNc3c4c(nc5ccccc35)CCCC4)c3c(nc2c1)CCCC3
Ki (Butyrylcholinesterase): 45 nM | Ki (Acetylcholinesterase): 120 nM
